{"source": "paper PMC9898036", "about": "“VIP152 is a selective CDK9 inhibitor with pre-clinical in vitro and in vivo efficacy in chronic lymphocytic leukemia” (Leukemia, 2022)", "test_in_all_cases": "DiscoverX KINOMEscan kinase profiling (468 assays)", "format_in_all_cases": "binding", "key": {"human kinome [1]": {"biological_target": "human kinome (Homo sapiens, UniProt P10721, T670I/V559D)", "conditions": "KIT(V559D,T670I); 100 nM; read-out: Percent Control", "outline": "(§1)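 DNA-tagged kinases competed for immobilized biotinylated ligands on streptavidin magnetic beads, with bound kinase quantified by qPCR. VIP152 in DMSO was tested against a DMSO control.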"}, "human kinome [2]": {"biological_target": "human kinome (Homo sapiens, UniProt P08069)", "conditions": "IGF1R; 100 nM; read-out: Percent Control", "outline": "as §1"}, "human kinome [3]": {"biological_target": "human kinome (Homo sapiens, UniProt P48729)", "conditions": "CSNK1A1; 100 nM; read-out: Percent Control", "outline": "as §1"}, "human kinome [4]": {"biological_target": "human kinome (Homo sapiens, UniProt Q13237)", "sequence (Q13237 whole entry)": "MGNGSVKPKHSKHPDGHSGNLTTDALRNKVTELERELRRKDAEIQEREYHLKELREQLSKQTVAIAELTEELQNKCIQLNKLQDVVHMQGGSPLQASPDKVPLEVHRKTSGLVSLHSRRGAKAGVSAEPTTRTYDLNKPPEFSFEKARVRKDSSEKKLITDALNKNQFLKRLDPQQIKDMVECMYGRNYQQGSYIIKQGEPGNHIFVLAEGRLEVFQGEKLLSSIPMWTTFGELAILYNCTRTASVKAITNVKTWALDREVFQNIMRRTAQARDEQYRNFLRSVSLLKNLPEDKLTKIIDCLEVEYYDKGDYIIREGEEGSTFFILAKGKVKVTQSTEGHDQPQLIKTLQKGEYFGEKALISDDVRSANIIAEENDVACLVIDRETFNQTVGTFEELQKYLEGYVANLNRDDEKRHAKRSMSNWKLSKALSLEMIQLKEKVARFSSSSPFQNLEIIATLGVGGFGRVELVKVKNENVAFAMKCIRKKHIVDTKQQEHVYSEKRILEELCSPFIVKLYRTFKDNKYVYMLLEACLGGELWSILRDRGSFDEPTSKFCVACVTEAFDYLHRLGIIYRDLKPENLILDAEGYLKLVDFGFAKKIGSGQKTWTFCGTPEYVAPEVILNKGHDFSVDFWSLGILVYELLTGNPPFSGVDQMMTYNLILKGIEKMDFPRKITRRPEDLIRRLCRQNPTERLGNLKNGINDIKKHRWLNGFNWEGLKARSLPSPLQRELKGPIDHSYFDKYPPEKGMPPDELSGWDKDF", "conditions": "read-out: Percent Control", "outline": "as §1"}, "human kinome [5]": {"biological_target": "human kinome (Homo sapiens, UniProt Q9BUB5)", "conditions": "MKNK1; 100 nM; read-out: Percent Control", "outline": "as §1"}, "human kinome [6]": {"biological_target": "human kinome (Homo sapiens, UniProt P19525)", "sequence (P19525 whole entry)": "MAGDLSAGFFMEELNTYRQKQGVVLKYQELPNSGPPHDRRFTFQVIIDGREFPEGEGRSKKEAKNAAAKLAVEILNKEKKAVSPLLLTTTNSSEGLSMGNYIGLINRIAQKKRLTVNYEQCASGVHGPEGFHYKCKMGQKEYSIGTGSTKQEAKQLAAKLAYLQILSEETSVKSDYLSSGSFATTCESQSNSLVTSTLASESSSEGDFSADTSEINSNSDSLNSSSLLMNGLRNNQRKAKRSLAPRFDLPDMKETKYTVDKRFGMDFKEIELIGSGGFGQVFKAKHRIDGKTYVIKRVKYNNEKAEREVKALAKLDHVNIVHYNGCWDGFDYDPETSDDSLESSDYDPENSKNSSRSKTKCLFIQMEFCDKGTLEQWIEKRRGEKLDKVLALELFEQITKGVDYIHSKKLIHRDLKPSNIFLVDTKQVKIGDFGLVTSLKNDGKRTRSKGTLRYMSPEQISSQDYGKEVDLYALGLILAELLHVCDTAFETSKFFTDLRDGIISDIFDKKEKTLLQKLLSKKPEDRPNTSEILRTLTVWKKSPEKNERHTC", "conditions": "read-out: Percent Control", "outline": "as §1"}, "human kinome [7]": {"biological_target": "human kinome (Homo sapiens, UniProt Q06418)", "conditions": "kinase TYRO3 (Entrez TYRO3); compound concentration 1000 nM; read-out: Percent Control", "outline": "as §1"}, "human kinome [8]": {"biological_target": "human kinome (Homo sapiens, UniProt Q8NE63)", "conditions": "HIPK4; 100 nM; read-out: Percent Control", "outline": "as §1"}, "human kinome [9]": {"biological_target": "human kinome (Homo sapiens, UniProt Q9BWU1)", "conditions": "CDK11 (Entrez CDK19); 100 nM; read-out: Percent Control", "outline": "as §1"}, "human kinome [10]": {"biological_target": "human kinome (Homo sapiens, UniProt Q8IU85)", "conditions": "CAMK1D; 100 nM; read-out: Percent Control", "outline": "as §1"}, "human kinome [11]": {"biological_target": "human kinome (Homo sapiens, UniProt O76039)", "conditions": "CDKL5; 100 nM; read-out: Percent Control", "outline": "as §1"}, "human kinome [12]": {"biological_target": "human kinome (Homo sapiens, UniProt Q9NWZ3)", "conditions": "IRAK4; 100 nM; read-out: Percent Control", "outline": "as §1"}, "human kinome [13]": {"biological_target": "human kinome (Homo sapiens, UniProt P20794)", "sequence (P20794 whole entry)": "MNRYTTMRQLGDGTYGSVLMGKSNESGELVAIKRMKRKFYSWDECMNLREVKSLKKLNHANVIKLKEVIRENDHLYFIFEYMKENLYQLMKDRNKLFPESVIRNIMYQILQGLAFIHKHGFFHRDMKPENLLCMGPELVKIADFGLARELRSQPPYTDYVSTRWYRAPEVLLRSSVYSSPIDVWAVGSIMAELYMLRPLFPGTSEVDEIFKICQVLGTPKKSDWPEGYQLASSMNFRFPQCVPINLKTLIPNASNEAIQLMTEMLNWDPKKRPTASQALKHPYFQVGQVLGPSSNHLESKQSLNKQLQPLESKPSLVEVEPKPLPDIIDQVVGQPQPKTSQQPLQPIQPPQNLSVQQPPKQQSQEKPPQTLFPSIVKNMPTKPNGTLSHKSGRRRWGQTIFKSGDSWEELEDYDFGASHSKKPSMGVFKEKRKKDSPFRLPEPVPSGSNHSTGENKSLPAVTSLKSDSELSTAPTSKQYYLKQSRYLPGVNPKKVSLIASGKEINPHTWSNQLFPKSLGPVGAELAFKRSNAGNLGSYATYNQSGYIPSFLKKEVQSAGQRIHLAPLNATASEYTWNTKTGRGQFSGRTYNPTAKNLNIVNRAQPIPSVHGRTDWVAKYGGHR", "conditions": "MAK; 100 nM; read-out: Percent Control", "outline": "as §1"}, "human kinome [14]": {"biological_target": "human kinome (Homo sapiens, UniProt Q9HCP0)", "sequence (Q9HCP0 whole entry)": "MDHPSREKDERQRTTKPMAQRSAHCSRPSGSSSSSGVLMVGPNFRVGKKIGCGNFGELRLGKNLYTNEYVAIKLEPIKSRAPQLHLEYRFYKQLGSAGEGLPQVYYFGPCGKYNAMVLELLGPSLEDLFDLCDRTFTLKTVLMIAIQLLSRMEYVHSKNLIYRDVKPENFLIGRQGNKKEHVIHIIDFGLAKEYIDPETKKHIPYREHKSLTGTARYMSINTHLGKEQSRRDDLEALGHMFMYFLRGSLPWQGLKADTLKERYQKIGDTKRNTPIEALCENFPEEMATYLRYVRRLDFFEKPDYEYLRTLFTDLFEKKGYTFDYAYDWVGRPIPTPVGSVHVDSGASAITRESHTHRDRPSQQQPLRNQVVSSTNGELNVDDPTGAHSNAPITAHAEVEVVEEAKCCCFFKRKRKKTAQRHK", "conditions": "CSNK1G1; 100 nM; read-out: Percent Control", "outline": "as §1"}, "human kinome [15]": {"system": "human kinome", "conditions": "for Percent Control: 100 nM", "outline": "as §1"}, "human kinome [16]": {"biological_target": "human kinome (Homo sapiens, UniProt P07332)", "conditions": "FES; 100 nM; read-out: Percent Control", "outline": "as §1"}, "human kinome [17]": {"biological_target": "human kinome (Homo sapiens, UniProt O14936)", "conditions": "CASK; 100 nM; read-out: Percent Control", "outline": "as §1"}, "human kinome [18]": {"biological_target": "human kinome (Homo sapiens, UniProt Q86Z02)", "conditions": "HIPK1; 100 nM; read-out: Percent Control", "outline": "as §1"}, "human kinome [19]": {"biological_target": "human kinome (Homo sapiens, UniProt Q16566)", "conditions": "CAMK4; 100 nM; read-out: Percent Control", "outline": "as §1"}, "human kinome [20]": {"biological_target": "human kinome (Homo sapiens, UniProt Q13164)", "conditions": "ERK5 (Entrez MAPK7); 100 nM; read-out: Percent Control", "outline": "as §1"}, "human kinome [21]": {"biological_target": "human kinome (Homo sapiens, UniProt Q13470)", "conditions": "kinase TNK1 (Entrez TNK1); compound concentration 1000 nM; read-out: Percent Control", "outline": "as §1"}, "human kinome [22]": {"biological_target": "human kinome (Homo sapiens, UniProt O15197)", "conditions": "EPHB6; 100 nM; read-out: Percent Control", "outline": "as §1"}, "human kinome [23]": {"biological_target": "human kinome (Homo sapiens, UniProt Q9UHD2)", "conditions": "kinase TBK1 (Entrez TBK1); compound concentration 1000 nM; read-out: Percent Control", "outline": "as §1"}, "human kinome [24]": {"biological_target": "human kinome (Homo sapiens, UniProt O43318)", "conditions": "kinase TAK1 (Entrez MAP3K7); compound concentration 1000 nM; read-out: Percent Control", "outline": "as §1"}, "human kinome [25]": {"biological_target": "human kinome (Homo sapiens, UniProt P11309)", "sequence (P11309 whole entry)": "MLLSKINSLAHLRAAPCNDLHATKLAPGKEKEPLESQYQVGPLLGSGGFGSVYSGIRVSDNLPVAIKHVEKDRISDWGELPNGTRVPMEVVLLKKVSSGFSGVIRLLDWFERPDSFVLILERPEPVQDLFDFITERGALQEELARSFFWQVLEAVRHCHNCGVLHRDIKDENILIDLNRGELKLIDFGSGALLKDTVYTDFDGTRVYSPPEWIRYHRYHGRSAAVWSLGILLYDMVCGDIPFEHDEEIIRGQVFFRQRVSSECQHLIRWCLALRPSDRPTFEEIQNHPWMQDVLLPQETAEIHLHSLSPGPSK", "conditions": "read-out: Percent Control", "outline": "as §1"}, "human kinome [26]": {"biological_target": "human kinome (Homo sapiens, UniProt Q86YV6)", "sequence (Q86YV6 whole entry)": "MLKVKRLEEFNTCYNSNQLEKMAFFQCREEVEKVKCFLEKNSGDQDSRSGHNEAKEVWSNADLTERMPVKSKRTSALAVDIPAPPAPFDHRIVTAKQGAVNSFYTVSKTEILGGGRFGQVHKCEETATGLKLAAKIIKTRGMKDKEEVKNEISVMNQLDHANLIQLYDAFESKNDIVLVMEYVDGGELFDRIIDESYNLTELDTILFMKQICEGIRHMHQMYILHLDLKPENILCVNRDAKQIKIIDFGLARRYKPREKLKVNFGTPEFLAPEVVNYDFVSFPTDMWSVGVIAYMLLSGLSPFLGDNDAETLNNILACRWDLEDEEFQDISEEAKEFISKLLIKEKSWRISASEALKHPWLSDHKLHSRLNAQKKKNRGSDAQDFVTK", "conditions": "read-out: Percent Control", "outline": "as §1"}, "human kinome [27]": {"biological_target": "human kinome (Homo sapiens, UniProt P49761)", "conditions": "CLK3; 100 nM; read-out: Percent Control", "outline": "as §1"}, "human kinome [28]": {"biological_target": "human kinome (Homo sapiens, UniProt P42336, Q546K)", "sequence (P42336 whole entry Q546K)": "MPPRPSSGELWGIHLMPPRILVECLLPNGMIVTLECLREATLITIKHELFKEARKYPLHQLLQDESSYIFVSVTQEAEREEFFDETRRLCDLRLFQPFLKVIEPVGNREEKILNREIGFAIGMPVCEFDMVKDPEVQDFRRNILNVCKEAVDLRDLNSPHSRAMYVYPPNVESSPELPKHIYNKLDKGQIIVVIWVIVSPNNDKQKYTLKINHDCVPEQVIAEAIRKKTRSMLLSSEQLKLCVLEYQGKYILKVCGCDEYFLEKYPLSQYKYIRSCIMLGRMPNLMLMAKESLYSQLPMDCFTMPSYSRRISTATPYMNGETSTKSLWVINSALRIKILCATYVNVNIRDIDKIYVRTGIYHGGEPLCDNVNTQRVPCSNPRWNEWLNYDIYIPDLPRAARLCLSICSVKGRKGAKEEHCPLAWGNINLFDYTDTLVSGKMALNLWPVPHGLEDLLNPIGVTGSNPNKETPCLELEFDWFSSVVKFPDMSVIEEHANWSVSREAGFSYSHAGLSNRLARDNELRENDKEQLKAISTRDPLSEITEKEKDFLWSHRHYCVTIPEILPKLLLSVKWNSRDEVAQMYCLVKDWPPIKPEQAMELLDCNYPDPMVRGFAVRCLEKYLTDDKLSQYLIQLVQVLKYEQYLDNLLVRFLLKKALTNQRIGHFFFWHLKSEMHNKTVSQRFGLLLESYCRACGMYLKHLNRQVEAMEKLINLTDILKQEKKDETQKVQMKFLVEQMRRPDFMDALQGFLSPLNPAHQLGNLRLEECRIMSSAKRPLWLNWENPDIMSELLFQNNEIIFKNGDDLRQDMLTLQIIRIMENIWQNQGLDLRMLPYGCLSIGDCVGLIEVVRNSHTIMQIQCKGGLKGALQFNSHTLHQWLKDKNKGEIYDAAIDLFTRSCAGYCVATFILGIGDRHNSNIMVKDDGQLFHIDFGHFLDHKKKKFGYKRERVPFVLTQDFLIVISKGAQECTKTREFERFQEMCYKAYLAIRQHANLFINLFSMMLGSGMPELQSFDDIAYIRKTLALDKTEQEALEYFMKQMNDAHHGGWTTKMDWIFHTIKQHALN", "conditions": "read-out: Percent Control", "outline": "as §1"}, "human kinome [29]": {"biological_target": "human kinome (Homo sapiens, UniProt Q15349)", "sequence (Q15349 whole entry)": "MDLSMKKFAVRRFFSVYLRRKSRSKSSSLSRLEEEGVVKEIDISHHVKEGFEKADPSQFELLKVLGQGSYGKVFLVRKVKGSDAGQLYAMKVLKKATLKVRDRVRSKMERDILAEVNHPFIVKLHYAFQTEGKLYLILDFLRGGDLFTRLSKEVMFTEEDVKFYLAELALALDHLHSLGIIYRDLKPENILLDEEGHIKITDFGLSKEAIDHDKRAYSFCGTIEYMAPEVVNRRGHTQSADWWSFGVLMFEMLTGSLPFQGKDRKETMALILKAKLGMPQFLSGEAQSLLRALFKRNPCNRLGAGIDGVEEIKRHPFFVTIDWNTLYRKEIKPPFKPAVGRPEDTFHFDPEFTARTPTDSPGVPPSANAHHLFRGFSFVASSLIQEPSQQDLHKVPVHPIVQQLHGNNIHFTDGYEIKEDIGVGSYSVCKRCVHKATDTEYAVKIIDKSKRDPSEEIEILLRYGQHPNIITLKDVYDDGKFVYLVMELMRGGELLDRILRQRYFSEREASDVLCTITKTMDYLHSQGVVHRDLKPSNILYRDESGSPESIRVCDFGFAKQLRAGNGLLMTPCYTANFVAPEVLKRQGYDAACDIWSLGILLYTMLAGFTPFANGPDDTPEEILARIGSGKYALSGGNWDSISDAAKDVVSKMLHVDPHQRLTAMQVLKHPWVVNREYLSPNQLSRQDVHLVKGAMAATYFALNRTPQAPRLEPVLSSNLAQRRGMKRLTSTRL", "conditions": "compound concentration 1000 nM, read-out: Percent Control", "outline": "as §1"}}, "note": "Where two headings read alike, the source gives them in different places.", "data": [{"smiles": "COc1cc(F)ccc1-c1cc(Nc2cc(CS(C)(=N)=O)ccn2)ncc1F", "note": "(centres unmarked) [VIP152]", "values": [{"measurement": "remaining binding at 0.1 µM", "setting": "human kinome [1]", "value": 100, "unit": "%"}, {"measurement": "remaining binding at 0.1 µM", "setting": "human kinome [2]", "value": 79, "unit": "%"}, {"measurement": "remaining binding at 0.1 µM", "setting": "human kinome [3]", "value": 79, "unit": "%"}, {"measurement": "remaining binding at 0.1 µM", "setting": "human kinome [4]; PRKG2, 100 nM", "value": 100, "unit": "%"}, {"measurement": "remaining binding at 1 µM", "setting": "human kinome [4]; kinase PRKG2 (Entrez PRKG2), compound concentration 1000 nM", "value": 100, "unit": "%"}, {"measurement": "remaining binding at 0.1 µM", "setting": "human kinome [5]", "value": 94, "unit": "%"}, {"measurement": "remaining binding at 0.1 µM", "setting": "human kinome [6]; PRKR (Entrez EIF2AK2), 100 nM", "value": 100, "unit": "%"}, {"measurement": "remaining binding at 1 µM", "setting": "human kinome [6]; kinase PRKR (Entrez EIF2AK2), compound concentration 1000 nM", "value": 100, "unit": "%"}, {"measurement": "remaining binding at 1 µM", "setting": "human kinome [7]", "value": 56, "unit": "%"}, {"measurement": "remaining binding at 0.1 µM", "setting": "human kinome [8]", "value": 100, "unit": "%"}, {"measurement": "remaining binding at 0.1 µM", "setting": "human kinome [9]", "value": 100, "unit": "%"}, {"measurement": "remaining binding at 0.1 µM", "setting": "human kinome [10]", "value": 100, "unit": "%"}, {"measurement": "remaining binding at 0.1 µM", "setting": "human kinome [11]", "value": 100, "unit": "%"}, {"measurement": "remaining binding at 0.1 µM", "setting": "human kinome [12]", "value": 100, "unit": "%"}, {"measurement": "remaining binding at 0.1 µM", "setting": "human kinome [13]", "value": 100, "unit": "%"}, {"measurement": "remaining binding at 0.1 µM", "setting": "human kinome [14]", "value": 100, "unit": "%"}, {"measurement": "Interactions Mapped", "setting": "human kinome [15]; @100nM, 468 Assays Tested", "value": 4}, {"measurement": "Percent Control", "setting": "human kinome [15]; EGFR(L747-E749del, A750P)", "value": 100, "unit": "%"}, {"measurement": "Percent Control", "setting": "human kinome [15]; EGFR(L747-S752del, P753S)", "value": 93, "unit": "%"}, {"measurement": "Percent Control", "setting": "human kinome [15]; EGFR(L747-T751del,Sins)", "value": 100, "unit": "%"}, {"measurement": "Percent Control", "setting": "human kinome [15]; FLT3(ITD)", "value": 100, "unit": "%"}, {"measurement": "Percent Control", "setting": "human kinome [15]; FLT3(ITD,D835V)", "value": 100, "unit": "%"}, {"measurement": "Percent Control", "setting": "human kinome [15]; FLT3(ITD,F691L)", "value": 99, "unit": "%"}, {"measurement": "remaining binding at 0.1 µM", "setting": "human kinome [16]", "value": 100, "unit": "%"}, {"measurement": "remaining binding at 0.1 µM", "setting": "human kinome [17]", "value": 78, "unit": "%"}, {"measurement": "remaining binding at 0.1 µM", "setting": "human kinome [18]", "value": 63, "unit": "%"}, {"measurement": "remaining binding at 0.1 µM", "setting": "human kinome [19]", "value": 100, "unit": "%"}, {"measurement": "remaining binding at 0.1 µM", "setting": "human kinome [20]", "value": 100, "unit": "%"}, {"measurement": "remaining binding at 1 µM", "setting": "human kinome [21]", "value": 82, "unit": "%"}, {"measurement": "remaining binding at 0.1 µM", "setting": "human kinome [22]", "value": 87, "unit": "%"}, {"measurement": "remaining binding at 1 µM", "setting": "human kinome [23]", "value": 100, "unit": "%"}, {"measurement": "remaining binding at 1 µM", "setting": "human kinome [24]", "value": 65, "unit": "%"}, {"measurement": "remaining binding at 0.1 µM", "setting": "human kinome [25]; PIM1, 100 nM", "value": 100, "unit": "%"}, {"measurement": "remaining binding at 1 µM", "setting": "human kinome [25]; kinase PIM1 (Entrez PIM1), compound concentration 1000 nM", "value": 100, "unit": "%"}, {"measurement": "remaining binding at 0.1 µM", "setting": "human kinome [26]; MYLK4, 100 nM", "value": 100, "unit": "%"}, {"measurement": "remaining binding at 1 µM", "setting": "human kinome [26]; kinase MYLK4 (Entrez MYLK4), compound concentration 1000 nM", "value": 89, "unit": "%"}, {"measurement": "remaining binding at 0.1 µM", "setting": "human kinome [27]", "value": 93, "unit": "%"}, {"measurement": "remaining binding at 0.1 µM", "setting": "human kinome [28]; PIK3CA(Q546K), 100 nM", "value": 100, "unit": "%"}, {"measurement": "remaining binding at 1 µM", "setting": "human kinome [28]; kinase PIK3CA(Q546K) (Entrez PIK3CA), compound concentration 1000 nM", "value": 96, "unit": "%"}, {"measurement": "remaining binding at 1 µM", "setting": "human kinome [29]; kinase RSK3(Kin.Dom.1-N-terminal) (Entrez RPS6KA2)", "value": 98, "unit": "%"}, {"measurement": "remaining binding at 1 µM", "setting": "human kinome [29]; kinase RSK3(Kin.Dom.2-C-terminal) (Entrez RPS6KA2)", "value": 92, "unit": "%"}]}]}
